Reference: ChEMBL document CHEMBL1159253, “Two new cytotoxic monotetrahydrofuran Annonaceous acetogenins, annomuricins A and B, from the leaves of Annona muricata” (J Nat Prod, 1995)
Values after ≈ are worked out from the molar mass of the structure shown.

Columns and labels:
[1] = Toxicity against brine shrimp; assay type: organism-based; settings: artemia, in vivo
A549 = experiment: Cytotoxicity against human A549 cells after 7 days by MTT assay; assay type: functional; settings: for EC50: Homo sapiens, A549, 168 h, read-out: ED50 (the source's name)
MCF7 = experiment: Cytotoxicity against human MCF7 cells after 7 days by MTT assay; assay type: functional; settings: for EC50: Homo sapiens, MCF7, 168 h, read-out: ED50 (the source's name)
HT-29 = experiment: Cytotoxicity against human HT-29 cells after 7 days by MTT assay; assay type: functional; settings: HT-29, 168 h, read-out: ED50 (the source's name)

Compound | LC50 [1] | ED50 (A549) | ED50 (MCF7) | EC50 (HT-29) | EC50 (A549) | EC50 (MCF7)
CCCCCCCCCCCC[C@H](O)[C@H]1CC[C@H]([C@H](O)CCC[C@@H]2OC(C)(C)O[C@@H]2CCCCC[C@@H](O)CC2=C[C@H](C)OC2=O)O1 | 0.18 µg/mL (≈ 0.276 µM) | 3.41 ×10⁻⁴ ug/ml | 1.41 ×10⁻⁴ ug/ml | 0.0933 µg/mL (≈ 0.143 µM) |  | 
CCCCCCCCCCCC[C@H](O)[C@H]1CC[C@H]([C@H](O)CCC[C@H](O)[C@H](O)CCCCC[C@@H](O)CC2=C[C@H](C)OC2=O)O1 [ANNOMURICIN B] | 0.687 µg/mL (≈ 1.12 µM) |  |  | 0.435 µg/mL (≈ 0.71 µM) | 0.159 µg/mL (≈ 0.259 µM) | > 1 µg/mL
CCCCCCCCCCCC[C@H](O)[C@H]1CC[C@H]([C@H](O)CCC[C@@H](O)[C@H](O)CCCCC[C@@H](O)CC2=C[C@H](C)OC2=O)O1 [ANNOMURICIN A] | 0.625 µg/mL (≈ 1.02 µM) |  |  | > 1 µg/mL | 0.33 µg/mL (≈ 0.538 µM) | > 1 µg/mL
CCCCCCCCCCCC[C@H](O)[C@H]1CC[C@H]([C@H](O)CCC[C@H]2OC(C)(C)O[C@@H]2CCCCC[C@@H](O)CC2=C[C@H](C)OC2=O)O1 | 0.131 µg/mL (≈ 0.201 µM) | 1.58 ×10⁻⁴ ug/ml | 2.78 ×10⁻⁴ ug/ml | > 1 µg/mL |  | 
COc1cccc2c1C(=O)c1c(O)c3c(c(O)c1C2=O)C[C@@](O)(C(=O)CO)C[C@@H]3O[C@H]1C[C@H](N)[C@H](O)[C@H](C)O1 [DOXORUBICIN] |  |  |  | 0.0275 µg/mL (≈ 0.0506 µM) | 0.0101 µg/mL (≈ 0.0186 µM) | 0.126 µg/mL (≈ 0.232 µM)
